# Experimental data reported in patent publication US10377781B2, “Alkylidene phosphonate esters as p-glycoprotein inducers” (Council of Scientific & Industrial Research, priority 2014, dated 2019).
# Entries after “also recorded” stand apart in the source; their conditions may differ. Like-named read-outs stand apart in the source and are kept apart here.
# Experiments:
# rat PXR = molecular target: T1, rat PXR (Rattus norvegicus, UniProt Q9R1A7); settings: cited from earlier work
# T1 sequence (Q9R1A7 1-431): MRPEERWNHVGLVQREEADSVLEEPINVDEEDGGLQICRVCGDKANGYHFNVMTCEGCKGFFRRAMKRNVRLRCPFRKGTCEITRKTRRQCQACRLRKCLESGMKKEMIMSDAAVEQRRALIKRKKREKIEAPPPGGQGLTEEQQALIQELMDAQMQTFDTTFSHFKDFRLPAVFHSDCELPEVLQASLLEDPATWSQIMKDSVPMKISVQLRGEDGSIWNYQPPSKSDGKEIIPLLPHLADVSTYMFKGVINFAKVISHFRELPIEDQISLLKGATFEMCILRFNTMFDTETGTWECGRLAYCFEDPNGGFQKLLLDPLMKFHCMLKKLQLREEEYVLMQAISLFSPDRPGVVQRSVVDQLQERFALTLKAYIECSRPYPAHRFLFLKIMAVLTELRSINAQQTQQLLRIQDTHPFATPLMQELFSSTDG
# CYP3A4 = settings: rat hepatocytes; cited from earlier work
# [1] = Thermodynamic equilibrium solubility; type: physicochemical; settings: for solubility: 25 °C, thermodynamic from solid
# Protocol: The compounds were first dissolved in methanol to prepare stock solutions (100 and 1000 μg/mL). Different concentrations of stock solutions were pipetted into the 96-well plates and the solvent was evaporated to ensure that solid drug was present in the beginning of the experiment. […] The plates were kept overnight for equilibration of drug in medium. Later, the plates were centrifuged at 3000 rpm for 15 min (Jouan centrifuge BR4i). Supernatant (50 μl) was pipetted into UV 96-well plates (Corning® 96 Well Clear Flat Bottom UV-Transparent Microplate) for analyses with plate reader (SpectraMax Plus384) at λmax of 350 nm. The analyses were performed in triplicate for each compound. The solubility curve of concentration (ng/mL) vs absorbance was plotted to find out saturation point and the corresponding concentration was noted.
# [2] = test system: P-glycoprotein (Pgp) in LS-180 cells; test: Pgp-induction assay, rhodamine123 (Rh123) cell exclusion method; type: cell-based; settings: for EC50: LS180 cells treated 48 h, Rh123 fluorescence vs concentration
# Protocol: All synthesized compounds were screened for their ability to induce Pgp using rhodamine123 (Rh123) cell exclusion method. In this method, the Pgp function was evaluated in terms of rhodamine 123 (Rh123) accumulations and efflux. Briefly, the protocol used is as follows: Colorectal LS-180 cells [obtained from ECACC (European Collection of Cell Cultures) catalogue number: 87021202; passage number 52] were seeded at a density of 2×10^4 per well of 96 well plate and were allowed to grow for next 24 h. Cells were further incubated with the test compounds, and were diluted to a final concentration of 100 nM and rifampicin (standard) to a final concentration of 10 μM in complete media for 48 h. The final concentration of DMSO was kept at 0.1%. Drugs were removed and cells were incubated with HANKS buffer for 40 minutes before further incubation with HANKS buffer (containing 10 μM of Rh123 as a Pgp substrate) for 90 minutes. At the end of Rh123 treatment cells were washed four times with cold PBS followed by cell lysis for 1 h by using 200 μl of lysis buffer (0.1% Triton X-100 and 0.2 N NaOH). A total of 100 μl of lysate was used for reading fluorescence of Rh123 at 485 nm/529 nm. Samples were normalized by dividing fluorescence of each sample with total protein present in the lysate. For EC50 determination, different concentrations of compound were used to treat LS180 cells for 48 h. The EC50 value was determined by plotting fluoroscence of Rh123 against concentration of compound.
# mouse PXR = molecular target: T2, mouse PXR (Mus musculus, UniProt O54915); settings: cited from earlier work
# T2 sequence (O54915 1-431): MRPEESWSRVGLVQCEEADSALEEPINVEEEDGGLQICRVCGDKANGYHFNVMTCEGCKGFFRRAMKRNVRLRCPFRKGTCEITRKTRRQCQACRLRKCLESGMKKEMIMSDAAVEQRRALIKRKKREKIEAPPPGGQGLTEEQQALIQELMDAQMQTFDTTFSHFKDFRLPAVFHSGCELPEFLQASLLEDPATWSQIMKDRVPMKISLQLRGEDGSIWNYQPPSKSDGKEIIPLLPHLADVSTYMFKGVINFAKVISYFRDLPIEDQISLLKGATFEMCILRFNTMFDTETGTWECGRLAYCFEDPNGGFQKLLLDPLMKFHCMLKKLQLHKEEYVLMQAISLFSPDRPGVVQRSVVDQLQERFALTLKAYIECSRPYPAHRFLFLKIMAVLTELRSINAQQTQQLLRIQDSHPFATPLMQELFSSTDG
# HMG-Co A reductase = settings: HepG2 (hepatocellular carcinoma) cells; read-out: IC50, reduction of HMG-Co A reductase activity; cited from earlier work
# rabbit PXR = molecular target: T3, rabbit PXR (Oryctolagus cuniculus, UniProt Q9TU02); settings: read-out: EC50, activation of rabbit PXR; cited from earlier work
# T3 sequence (Q9TU02 1-411): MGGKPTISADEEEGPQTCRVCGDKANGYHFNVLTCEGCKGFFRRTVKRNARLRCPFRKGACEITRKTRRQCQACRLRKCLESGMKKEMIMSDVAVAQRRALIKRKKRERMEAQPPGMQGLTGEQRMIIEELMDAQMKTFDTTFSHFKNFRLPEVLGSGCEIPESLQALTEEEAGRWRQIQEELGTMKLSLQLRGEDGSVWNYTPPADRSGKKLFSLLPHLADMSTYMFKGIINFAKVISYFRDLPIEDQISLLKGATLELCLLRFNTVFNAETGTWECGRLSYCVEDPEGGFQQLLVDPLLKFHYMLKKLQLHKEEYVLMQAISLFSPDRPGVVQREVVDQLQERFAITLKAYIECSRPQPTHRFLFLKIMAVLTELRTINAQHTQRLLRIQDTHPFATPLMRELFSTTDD
# [3] = test system: p-glycoprotein expression in LS-180 cells; test: Western blot analysis of Pgp expression; type: cell-based
# Protocol: Protein was measured employing Bio-Rad protein assay kit using bovine serum albumin as standard. Proteins aliquots (70 μg) were resolved on SDS-PAGE and then electro transferred to PVDF membrane overnight at 4° C. at 30V. Nonspecific binding was blocked by incubation with 5% non-fat milk in Tris-buffered saline containing 0.1% Tween-20 (TBST) for 1 h at room temperature. The blots were probed with anti-Pgp antibody for 4 h and washed three times with TBST. Blot was then incubated with horseradish peroxidase conjugated antimouse secondary antibody for 1 h, washed again three times with TBST and signals detected using ECL plus chemiluminescence's kit on BioRad ChemiDoc XRS system.
Structure (SMILES),activation of rat PXR (rat PXR),CYP3A4 protein levels (CYP3A4),"solubility ([1]; water, 25±1° C., read-out: Solubility, Water) [µg/mL]","solubility ([1]; phosphate buffer saline (PBS), aqueous buffer, read-out: Solubility, PBS) [µg/mL]","solubility ([1]; simulated gastric fluid (SGF), simulated gastric fluid, read-out: Solubility, SGF) [µg/mL]","solubility ([1]; simulated intestinal fluid (SIF), fassgf or other biorelevant, read-out: Solubility, SIF) [µg/mL]",EC50 [2] [nM],activation of mouse PXR (mouse PXR),IC50 (HMG-Co A reductase) [nM],EC50 (rabbit PXR) [nM],"Solubility, PBS ([1]; phosphate buffer saline (PBS)) [µg/mL]","Solubility, SGF ([1]; simulated gastric fluid (SGF)) [µg/mL]","Solubility, SIF ([1]; simulated intestinal fluid (SIF)) [µg/mL]",solubility in words ([1]; water and biological fluids),"Solubility, Water ([1]; water, 25±1° C.) [µg/mL]","Pgp induction as decrease in % intracellular levels of rhodamine 123 ([2]; LS-180 cells, test compounds 100 nM, 48 h)","fold difference of EC50 versus SR12813 (1a) ([2]; Pgp induction EC50, LS180 cells) [fold]",p-glycoprotein expression (Western blot) [3]
CCOP(=O)(OCC)C(=Cc1cc(C(C)(C)C)c(O)c(C(C)(C)C)c1)P(=O)(OCC)OCC [Compound 1a],very weak activator,increase CYP3A4 protein levels,200,200,200,200,2.04,very weak activator,850,~700,,,,,,,,
"CCOP(=O)(OCC)C(=Cc1c2ccccc2cc2ccccc12)P(=O)(OCC)OCC [Compound 1l, Tetraethyl 2-(anthracene-10-yl) ethene-1,1-diyldiphosphonate]",,,,,,,0.9,,,,>1500,>1500,>1500,optimal solubility,400,decreased; also recorded: promising induction of p-glycoprotein,2,induces p-glycoprotein expression
